Measured values reported in patent US20220242846A1, “ISOINDOLINONE COMPOUNDS” (Monte Rosa Therapeutics AG, priority 2019, published 2022).
Where two headings read alike, the source gives them in different places.

Assays:
[1] = target: T1, Full length wild-type cereblon CRBN (Homo sapiens, UniProt Q96SW2); assay: Fluorescence polarization (FP) assay indicating cereblon binding; conditions: CRBN 80.0 nM, fluorescent probe 5 nM, FP measured after 12 hours; read-out: rFP IC50
T1 construct: Full length wild-type cereblon CRBN (80.0 nM, 10 μL) was incubated in assay buffer
T1 sequence (Q96SW2 whole entry): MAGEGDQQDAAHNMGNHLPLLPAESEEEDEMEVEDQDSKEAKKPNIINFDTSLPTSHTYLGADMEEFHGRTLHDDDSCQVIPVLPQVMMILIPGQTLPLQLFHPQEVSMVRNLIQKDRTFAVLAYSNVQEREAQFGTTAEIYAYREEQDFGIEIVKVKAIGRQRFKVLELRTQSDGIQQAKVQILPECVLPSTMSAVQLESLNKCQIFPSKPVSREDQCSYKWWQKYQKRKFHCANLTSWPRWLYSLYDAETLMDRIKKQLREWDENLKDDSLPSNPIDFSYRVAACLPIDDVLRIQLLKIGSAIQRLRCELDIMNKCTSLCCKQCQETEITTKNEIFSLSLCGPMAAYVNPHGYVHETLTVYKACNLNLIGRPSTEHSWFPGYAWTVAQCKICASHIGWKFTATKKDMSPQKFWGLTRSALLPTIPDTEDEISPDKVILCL
Summary of the method: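 Full-length wild-type human CRBN (80.0 nM) preincubated 30 min at room temperature with compound (12-point curve, 300-0.937 or 3000-9.3 nM) in HEPES pH 8.0, NaCl, TCEP, Tween 20. Thalidomide-based Cy5-type probe then added at 5 nM final; FP read after 12 h (ex 590, em 675 nm), normalized to DMSO, IC50 derived.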

[2] = system: Human mammary epithelial cells (HMEC) engineered to express EGFP alone (non myc); assay: 3D spheroid assay, non myc-HMEC (CellTiterGlo3D viability); assay type: cell-based; conditions: 120 h, 3D spheroids, 5 days with compound, read-out: Code: EC50 value in the non myc-HMEC assay
Description: (§1) 3D Spheroid Experiments—HMEC
(§2) Human mammary epithelial cells (HMEC) were engineered to express either c-myc tagged with EGFP or EGFP alone (non myc) (analogous but distinct from Kessler J D et al, Science. 2012 Jan. 20; 335(6066):348-53. doi: 10.1126/science.1212728; Hsu T Y et al, Nature. 2015 Sep. 17; 525(7569):384-8. doi: 10.1038/nature14985). The engineered cells were seeded at 1000 (myc) or 4000 (non myc) cells/well in a 384 ultra-low attachment plate in a total volume of 40 µL, HMEC cell culture media (DMEM/F12+10% HI-FBS+15 mM HEPES+0.5 ug/ml Hydrocortisone+10 ug/ml Insulin+20 ng/ml EGF). Plates were spun at 1200 rpm for 5 minutes at room temperature to ensure that cells have gathered in the middle of the well and incubated at 37° C. for 48 hrs before firing with compounds. On Day 2 (48 h post seeding) cells were imaged (brightfield and EGFP fluorescence) using the Celigo imaging cytometer prior to firing compounds. For primary screens, compounds were added at three concentrations (1.25, 10 and 30 uM) in a volume of 120 nL using the ECHO acoustic dispenser and spun at 2000 rpm for 2 minutes at room temperature before incubating at 37° C. for 5 days. […] On Day 7, prior to measuring cell viability using CellTiterGlo3D, cells were imaged (brightfield and EGFP fluorescence) on the Celigo imaging cytometer. The CellTiterGlo3D reagent is added at 30uL/well and incubated at room temperature for 30mins After 30mins of incubation, luminescence readings were recorded using the Perkin Elmer EnVision reader.

[3] = target: GSPT1 (Homo sapiens, UniProt P15170+Q96SW2); assay: Immunofluorescence assay for GSPT1 degradation in CAL-51 cells; assay type: cell-based; design: CAL-51 cells were purchased from DSMZ (cat. Number ACC302); endogenous in cells; host or cells: CAL-51 (DSMZ ACC302); conditions: compound treatment 6 hours
GSPT1, sequence (P15170 whole entry): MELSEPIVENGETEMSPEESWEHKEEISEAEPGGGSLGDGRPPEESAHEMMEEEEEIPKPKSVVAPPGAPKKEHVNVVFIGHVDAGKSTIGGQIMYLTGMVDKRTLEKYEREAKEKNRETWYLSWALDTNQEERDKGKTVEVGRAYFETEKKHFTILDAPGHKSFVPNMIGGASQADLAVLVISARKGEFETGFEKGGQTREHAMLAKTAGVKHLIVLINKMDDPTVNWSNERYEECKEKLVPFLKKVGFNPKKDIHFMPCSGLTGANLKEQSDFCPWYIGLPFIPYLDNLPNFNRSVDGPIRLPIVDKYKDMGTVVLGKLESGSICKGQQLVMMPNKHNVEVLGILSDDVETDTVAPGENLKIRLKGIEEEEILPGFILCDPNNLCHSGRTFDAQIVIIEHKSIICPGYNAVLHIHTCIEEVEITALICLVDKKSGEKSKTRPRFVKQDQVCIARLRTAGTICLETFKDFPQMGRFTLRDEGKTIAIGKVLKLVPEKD
GSPT1, sequence (Q96SW2 whole entry): as the sequence (Q96SW2 whole entry) above
GSPT1, sequence (Q16531 2-1140 partner limits assumed): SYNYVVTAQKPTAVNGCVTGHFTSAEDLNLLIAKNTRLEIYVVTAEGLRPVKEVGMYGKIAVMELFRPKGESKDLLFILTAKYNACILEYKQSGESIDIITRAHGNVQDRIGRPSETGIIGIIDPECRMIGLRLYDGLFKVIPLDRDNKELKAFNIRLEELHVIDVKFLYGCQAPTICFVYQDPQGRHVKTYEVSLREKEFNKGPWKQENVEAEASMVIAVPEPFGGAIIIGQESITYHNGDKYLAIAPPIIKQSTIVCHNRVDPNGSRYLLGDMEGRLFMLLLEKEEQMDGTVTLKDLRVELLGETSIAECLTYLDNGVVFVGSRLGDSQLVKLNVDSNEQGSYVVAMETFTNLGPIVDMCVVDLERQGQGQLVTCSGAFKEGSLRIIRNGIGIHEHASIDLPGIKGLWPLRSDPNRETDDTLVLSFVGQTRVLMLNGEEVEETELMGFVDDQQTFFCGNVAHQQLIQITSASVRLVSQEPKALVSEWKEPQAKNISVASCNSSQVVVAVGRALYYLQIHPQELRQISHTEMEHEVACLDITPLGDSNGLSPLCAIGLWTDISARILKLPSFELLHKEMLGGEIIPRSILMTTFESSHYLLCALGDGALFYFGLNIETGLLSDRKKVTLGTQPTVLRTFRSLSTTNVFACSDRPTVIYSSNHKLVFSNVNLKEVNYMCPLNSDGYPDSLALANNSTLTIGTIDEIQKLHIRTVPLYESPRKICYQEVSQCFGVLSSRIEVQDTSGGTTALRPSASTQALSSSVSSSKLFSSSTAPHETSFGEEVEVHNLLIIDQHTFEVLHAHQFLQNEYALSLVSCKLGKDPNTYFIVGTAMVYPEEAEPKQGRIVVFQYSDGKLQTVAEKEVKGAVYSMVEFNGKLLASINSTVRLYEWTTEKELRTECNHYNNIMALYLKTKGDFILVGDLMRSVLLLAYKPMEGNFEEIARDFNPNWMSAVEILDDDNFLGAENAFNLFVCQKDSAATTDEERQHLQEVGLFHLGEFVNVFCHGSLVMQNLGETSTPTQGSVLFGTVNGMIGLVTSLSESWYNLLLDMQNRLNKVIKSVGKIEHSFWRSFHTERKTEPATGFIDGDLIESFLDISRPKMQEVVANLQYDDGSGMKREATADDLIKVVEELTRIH
Summary of the method: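 CAL-51 cells on fibronectin-coated plates treated 6 h with compound (30 μM to 0.1 nM); fixed, stained with anti-GSPT1/Alexa-488, phalloidin and DAPI, imaged by high-content microscopy. Mean GSPT1 intensity per cell normalized to controls; DC50 by non-linear regression.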

[4] = system: Human mammary epithelial cells (HMEC) engineered to express c-myc tagged with EGFP; assay: 3D spheroid assay, myc-HMEC (CellTiterGlo3D viability); assay type: cell-based
Description: as §1, §2

[5] = read-out: Code: activity for GSPT1 degradation (DC50)
[6] = Homo sapiens, HMEC, 120 h, 3D spheroids, 5 days with compound, read-out: Code: EC50 value in the myc-HMEC assay
[7] = myc-HMEC 3D spheroids (compounds with code D and E), 5 days, read-out: EC50
[8] = GSPT1 degradation, read-out: DC50
[9] = Homo sapiens, HMEC, 120 h, myc-HMEC 3D spheroids (compounds with code D and E), 5 days, read-out: EC50

SMILES	IC50 [1] [nM]	EC50 [2] [nM]	DC50 [3, 5] [nM]	EC50 [4, 6] [nM]	EC50 [4, 7] [nM]	DC50 [3, 8] [nM]	EC50 [4, 9] [nM]
Cc1ccc(F)cc1NC(=O)NCc1ccc2c(c1)C(=O)N(C1CCC(=O)NC1=O)C2 (centres unmarked) [Compound 62]	441	> 10000	> 300	> 2000	–	–	–
CCc1ccc(NC(=O)NCc2ccc3c(c2)C(=O)N(C2CCC(=O)NC2=O)C3)cc1 (centres unmarked) [Compound 18]	552	> 10000	> 300	> 2000	–	–	–
CC(C)c1ccc(NC(=O)NCc2ccc3c(c2)C(=O)N(C2CCC(=O)NC2=O)C3)cc1 (centres unmarked) [Compound 57]	373	> 10000	> 300	> 2000	–	–	–
Cc1cc(Cl)c(NC(=O)NCc2ccc3c(c2)C(=O)N(C2CCC(=O)NC2=O)C3)cc1Cl (centres unmarked) [Compound 78]	725	> 10000	≤ 100	–	–	–	–
Cc1cc(NC(=O)NCc2ccc3c(c2)C(=O)N(C2CCC(=O)NC2=O)C3)ccc1Cl (centres unmarked) [Compound 61]	381	> 10000	≤ 100	≤ 400	92	–	–
O=C1CCC(N2Cc3ccc(CNC(=O)Nc4ccc(Cl)c(Cl)c4)cc3C2=O)C(=O)N1 (centres unmarked) [Compound 46]	1400	> 10000	≤ 100	400 to 2000	469	–	–
O=C1CCC(N2Cc3ccc(CNC(=O)Nc4cc(Cl)cc(Cl)c4)cc3C2=O)C(=O)N1 (centres unmarked) [Compound 38]	589	> 10000	100 to 300	≤ 400	161	–	–
CCOc1ccccc1NC(=O)NCc1ccc2c(c1)C(=O)N(C1CCC(=O)NC1=O)C2 (centres unmarked) [Compound 22]	393	> 10000	> 300	> 2000	–	–	–
CCCNC(=O)NCc1ccc2c(c1)C(=O)N(C1CCC(=O)NC1=O)C2 (centres unmarked) [Compound 14]	1420	> 10000	> 300	> 2000	–	–	–
O=C1CCC(N2Cc3ccc(CNC(=O)NC4CCCCC4)cc3C2=O)C(=O)N1 (centres unmarked) [Compound 29]	1140	> 10000	> 300	> 2000	–	–	–
Cc1cc(C)cc(NC(=O)NCc2ccc3c(c2)C(=O)N(C2CCC(=O)NC2=O)C3)c1 (centres unmarked) [Compound 20]	550	> 10000	≤ 100	400 to 2000	555	–	–
O=C1CCC(N2Cc3ccc(CNC(=O)NCc4ccccc4)cc3C2=O)C(=O)N1 (centres unmarked) [Compound 24]	1590	> 10000	> 300	> 2000	–	–	–
Cc1cccc(CNC(=O)NCc2ccc3c(c2)C(=O)N(C2CCC(=O)NC2=O)C3)c1 (centres unmarked) [Compound 63]	492	> 10000	> 300	> 2000	–	–	–
C[C@@H](NC(=O)NCc1ccc2c(c1)C(=O)N(C1CCC(=O)NC1=O)C2)c1ccccc1 (some centres unmarked) [Compound 54]	471	> 10000	> 300	> 2000	–	–	–
O=C1CCC(N2Cc3ccc(CNC(=O)Nc4cccc(Cl)c4)cc3C2=O)C(=O)N1 (centres unmarked) [Compound 3]	400	> 10000	> 300	> 2000	–	–	–
O=C1CCC(N2Cc3ccc(CNC(=O)Nc4ccc(C(F)(F)F)cc4)cc3C2=O)C(=O)N1 (centres unmarked) [Compound 41]	590	> 10000	100 to 300	400 to 2000	1100	172	≤ 2000
O=C1CCC(N2Cc3ccc(CNC(=O)Nc4ccccc4)cc3C2=O)C(=O)N1 (centres unmarked) [Compound 1]	1040	> 10000	> 300	> 2000	–	–	–
CCNC(=O)NCc1ccc2c(c1)C(=O)N(C1CCC(=O)NC1=O)C2 (centres unmarked) [Compound 15]	902	> 10000	> 300	> 2000	–	–	–
O=C1CCC(N2Cc3ccc(CNC(=O)Nc4ccc(Cl)cc4)cc3C2=O)C(=O)N1 (centres unmarked) [Compound 2]	254	> 10000	> 300	> 2000	–	–	–
Cc1cc(Cl)ccc1NC(=O)NCc1ccc2c(c1)C(=O)N(C1CCC(=O)NC1=O)C2 (centres unmarked) [Compound 32]	508	> 10000	> 300	> 2000	–	–	–
O=C1CCC(N2Cc3ccc(CNC(=O)Nc4ccc(-c5ccccc5)cc4)cc3C2=O)C(=O)N1 (centres unmarked) [Compound 71]	333	> 10000	≤ 100	≤ 400	39	–	–
Cc1ccc(NC(=O)NCc2ccc3c(c2)C(=O)N(C2CCC(=O)NC2=O)C3)cc1C (centres unmarked) [Compound 68]	290	> 10000	100 to 300	400 to 2000	458	200	–
O=C1CCC(N2Cc3ccc(CNC(=O)Nc4ccc(F)c(Cl)c4)cc3C2=O)C(=O)N1 (centres unmarked) [Compound 42]	589	> 10000	100 to 300	400 to 2000	1720	253	≤ 2000
O=C1CCC(N2Cc3ccc(CNC(=O)Nc4ccccc4C(F)(F)F)cc3C2=O)C(=O)N1 (centres unmarked) [Compound 49]	867	> 10000	> 300	> 2000	–	–	–
O=C1CCC(N2Cc3ccc(CNC(=O)NC4CCCC4)cc3C2=O)C(=O)N1 (centres unmarked) [Compound 28]	814	> 10000	> 300	> 2000	–	–	–
O=C1CCC(N2Cc3ccc(CNC(=O)Nc4ccccc4F)cc3C2=O)C(=O)N1 (centres unmarked) [Compound 48]	719	> 10000	> 300	> 2000	–	–	–
O=C1CCC(N2Cc3ccc(CNC(=O)Nc4ccc(OC(F)(F)F)cc4)cc3C2=O)C(=O)N1 (centres unmarked) [Compound 77]	570	> 10000	≤ 100	–	–	–	–
COc1cc(C)c(Cl)cc1NC(=O)NCc1ccc2c(c1)C(=O)N(C1CCC(=O)NC1=O)C2 (centres unmarked) [Compound 76]	281	> 10000	≤ 100	–	–	–	–
